Laboratory results published in ChEMBL document CHEMBL1201862, “PubChem BioAssay data set” (2004).
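Results reflect a 48-hour exposure of cells in 96-well plates to compound at five concentrations. Abbreviation: GI50, concentration required for 50% inhibition of growth.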 Activity calls are given as the source filed them. Cut-off read from the data, not from the text of the source: active = GI50 up to about 1.1 µM and inactive = higher.

Assays:
Test in all cases: DTP human tumour cell line panel, 48 h
786-0 = test system: 786-0
A498 = test system: A498
A549 = test system: A549
ACHN = test system: ACHN
BT-549 = test system: BT-549
CAKI-1 = test system: CAKI-1
CCRF-CEM = test system: CCRF-CEM
COLO 205 = test system: COLO 205
DU-145 = test system: DU-145
EKVX = test system: EKVX
HCT-116 = test system: HCT-116
HCT-15 = test system: HCT-15
HL-60 = test system: HL-60
HOP-62 = test system: HOP-62
HOP-92 = test system: HOP-92
HT-29 = test system: HT-29
Hs-578T = test system: Hs-578T
IGROV-1 = test system: IGROV-1
K562 = test system: K562
KM12 = test system: KM12
LOX IMVI = test system: LOX IMVI
M14 = test system: M14
MCF7 = test system: MCF7
MDA-MB-231 = test system: MDA-MB-231
MDA-MB-435 = test system: MDA-MB-435
MDA-N = test system: MDA-N
MOLT-4 = test system: MOLT-4
Malme-3M = test system: Malme-3M
NCI-H226 = test system: NCI-H226
NCI-H23 = test system: NCI-H23
NCI-H460 = test system: NCI-H460
NCI-H522 = test system: NCI-H522
NCI/ADR-RES = test system: NCI/ADR-RES
OVCAR-3 = test system: OVCAR-3
OVCAR-4 = test system: OVCAR-4
OVCAR-5 = test system: OVCAR-5
OVCAR-8 = test system: OVCAR-8
PC-3 = test system: PC-3
RPMI-8226 = test system: RPMI-8226
RXF 393 = test system: RXF 393
SF-268 = test system: SF-268
SF-295 = test system: SF-295
SF-539 = test system: SF-539
SK-MEL-28 = test system: SK-MEL-28
SK-MEL-2 = test system: SK-MEL-2
SK-MEL-5 = test system: SK-MEL-5
SK-OV-3 = test system: SK-OV-3
SN12C = test system: SN12C
SNB-19 = test system: SNB-19
SR = test system: SR
SW-620 = test system: SW-620
T47D = test system: T47D
TK-10 = test system: TK-10
U-251 = test system: U-251
UACC-257 = test system: UACC-257
UACC-62 = test system: UACC-62
UO-31 = test system: UO-31
SNB-75 = test system: SNB-75

`O=C(O)c1ccccc1/C=N/N=C1c2ccccc2-c2ccccc21` was tested, and the GI50 (786-0) was 29.6 µM (inactive), the GI50 (A498) was 68.4 µM (inactive) and the GI50 (A549) was 31.6 µM (inactive). For the same compound, the GI50 (ACHN) was 45.1 µM (inactive), the GI50 (BT-549) was 71.9 µM (inactive) and the GI50 (CAKI-1) was 35.3 µM (inactive). For the same compound, the GI50 (CCRF-CEM) was 25.5 µM (inactive), the GI50 (COLO 205) was 32.1 µM (inactive) and the GI50 (DU-145) was 42.7 µM (inactive). The GI50 (EKVX) was 29 µM (inactive), the GI50 (HCT-116) was 31 µM (inactive) and the GI50 (HCT-15) was 44.8 µM. For the same compound, the GI50 (HL-60) was 28.8 µM (inactive), the GI50 (HOP-62) was 42.6 µM (inactive) and the GI50 (HOP-92) was 35.3 µM (inactive). For the same compound, the GI50 (HT-29) was 29 µM (inactive), the GI50 (Hs-578T) was 3.94 µM (inactive) and the GI50 (IGROV-1) was 43.3 µM (inactive). The GI50 (K562) was 32.1 µM (inactive), the GI50 (KM12) was 22.2 µM (inactive) and the GI50 (LOX IMVI) was 37.7 µM (inactive). For the same compound, the GI50 (M14) was 42.2 µM (inactive), the GI50 (MCF7) was 31.2 µM (inactive) and the GI50 (MDA-MB-231) was 59 µM (inactive). For the same compound, the GI50 (MDA-MB-435) was 29.9 µM (inactive), the GI50 (MDA-N) was 37.5 µM (inactive) and the GI50 (MOLT-4) was 22.5 µM (inactive). The GI50 (Malme-3M) was 23.3 µM (inactive), the GI50 (NCI-H226) was 20.8 µM (inactive) and the GI50 (NCI-H23) was 38.5 µM (inactive). The GI50 (NCI-H460) was 26.7 µM (inactive), the GI50 (NCI-H522) was 28.6 µM (inactive) and the GI50 (NCI/ADR-RES) was 52.8 µM (inactive). For the same compound, the GI50 (OVCAR-3) was 15.6 µM (inactive), the GI50 (OVCAR-4) was 35.2 µM (inactive) and the GI50 (OVCAR-5) was 50.2 µM (inactive). For the same compound, the GI50 (OVCAR-8) was 44.9 µM (inactive), the GI50 (PC-3) was 30.3 µM (inactive) and the GI50 (RPMI-8226) was 20.2 µM (inactive). The GI50 (RXF 393) was 29 µM (inactive), the GI50 (SF-268) was 21.3 µM (inactive) and the GI50 (SF-295) was 29.3 µM (inactive). The GI50 (SF-539) was 27.9 µM (inactive), the GI50 (SK-MEL-28) was 51.2 µM (inactive) and the GI50 (SK-MEL-2) was 44.1 µM (inactive). For the same compound, the GI50 (SK-MEL-5) was 33.3 µM (inactive), the GI50 (SK-OV-3) was 44.9 µM (inactive) and the GI50 (SN12C) was 28.2 µM (inactive). The GI50 (SNB-19) was 39.9 µM (inactive), the GI50 (SR) was 27.3 µM (inactive) and the GI50 (SW-620) was 32.4 µM (inactive). For the same compound, the GI50 (T47D) was 30.7 µM (inactive), the GI50 (TK-10) was 74.8 µM (inactive) and the GI50 (U-251) was 22 µM (inactive). For the same compound, the GI50 (UACC-257) was 85.1 µM (inactive), the GI50 (UACC-62) was 44.9 µM (inactive) and the GI50 (UO-31) was 32.7 µM (inactive).

`COc1cccc2cc(C(=O)Nc3ccccc3)c(=N)oc12` was tested, and the GI50 (786-0) was 15.7 µM (inactive), the GI50 (A498) was > 100 µM (inactive) and the GI50 (A549) was > 100 µM (inactive). The GI50 (ACHN) was > 100 µM (inactive), the GI50 (BT-549) was > 100 µM (inactive) and the GI50 (CCRF-CEM) was > 21.8 µM (inactive). The GI50 (COLO 205) was > 100 µM (inactive), the GI50 (DU-145) was > 100 µM (inactive) and the GI50 (EKVX) was > 100 µM (inactive). For the same compound, the GI50 (HCT-116) was 24.3 µM (inactive), the GI50 (HCT-15) was greater than 100 µM and the GI50 (HOP-62) was > 58.5 µM (inactive). For the same compound, the GI50 (HOP-92) was 22.2 µM (inactive), the GI50 (HT-29) was > 100 µM (inactive) and the GI50 (Hs-578T) was 10.4 µM (inactive). The GI50 (IGROV-1) was 49.5 µM (inactive), the GI50 (K562) was > 100 µM (inactive) and the GI50 (KM12) was > 29.6 µM (inactive). For the same compound, the GI50 (LOX IMVI) was > 100 µM (inactive), the GI50 (M14) was > 100 µM (inactive) and the GI50 (MCF7) was 5.93 µM (inactive). The GI50 (MDA-MB-231) was 13 µM (inactive), the GI50 (MDA-MB-435) was > 100 µM (inactive) and the GI50 (MDA-N) was > 100 µM (inactive). For the same compound, the GI50 (MOLT-4) was > 100 µM (inactive), the GI50 (Malme-3M) was > 100 µM (inactive) and the GI50 (NCI-H226) was > 100 µM (inactive). The GI50 (NCI-H23) was > 69.2 µM (inactive), the GI50 (NCI-H460) was > 100 µM (inactive) and the GI50 (NCI-H522) was > 28.2 µM (inactive). The GI50 (NCI/ADR-RES) was > 100 µM (inactive), the GI50 (OVCAR-3) was > 100 µM (inactive) and the GI50 (OVCAR-4) was > 100 µM (inactive). The GI50 (OVCAR-5) was > 100 µM (inactive), the GI50 (OVCAR-8) was > 46.6 µM (inactive) and the GI50 (PC-3) was > 100 µM (inactive). For the same compound, the GI50 (RPMI-8226) was > 100 µM (inactive), the GI50 (RXF 393) was > 100 µM (inactive) and the GI50 (SF-268) was > 85.9 µM (inactive). The GI50 (SF-295) was > 100 µM (inactive), the GI50 (SF-539) was > 100 µM (inactive) and the GI50 (SK-MEL-28) was > 100 µM (inactive). For the same compound, the GI50 (SK-MEL-2) was > 100 µM (inactive), the GI50 (SK-MEL-5) was > 81.3 µM (inactive) and the GI50 (SK-OV-3) was > 64 µM (inactive). The GI50 (SN12C) was > 100 µM (inactive), the GI50 (SNB-19) was > 75.9 µM (inactive) and the GI50 (SNB-75) was 16.7 µM (inactive). For the same compound, the GI50 (SR) was > 71 µM (inactive), the GI50 (SW-620) was > 100 µM (inactive) and the GI50 (T47D) was 6.01 µM (inactive). For the same compound, the GI50 (TK-10) was > 100 µM (inactive), the GI50 (U-251) was 67.6 µM (inactive) and the GI50 (UACC-257) was > 100 µM (inactive). For the same compound, the GI50 (UACC-62) was 62.4 µM (inactive) and the GI50 (UO-31) was > 48.1 µM (inactive).

`CC(NC(=O)C(Cc1ccc(OC(=O)c2ccccc2)cc1)NC(=O)OC(C)(C)C)C(=O)NCC(=O)NC(Cc1ccccc1)C(=O)NN` (stereo not drawn) was tested, and the GI50 (786-0) was > 100 µM (inactive), the GI50 (A498) was 15 µM (inactive) and the GI50 (A549) was > 100 µM (inactive). The GI50 (ACHN) was > 100 µM (inactive), the GI50 (BT-549) was 55.5 µM (inactive) and the GI50 (CAKI-1) was 89.1 µM (inactive). For the same compound, the GI50 (COLO 205) was 23.8 µM (inactive), the GI50 (DU-145) was > 100 µM (inactive) and the GI50 (EKVX) was > 100 µM (inactive). The GI50 (HCT-116) was 43.1 µM (inactive), the GI50 (HCT-15) was greater than 100 µM and the GI50 (HL-60) was 16 µM (inactive). For the same compound, the GI50 (HOP-62) was 83 µM (inactive), the GI50 (HOP-92) was 98.2 µM (inactive) and the GI50 (HT-29) was 31 µM (inactive). The GI50 (Hs-578T) was 32.7 µM (inactive), the GI50 (IGROV-1) was 25.4 µM (inactive) and the GI50 (K562) was 20 µM (inactive). The GI50 (KM12) was 80.7 µM (inactive), the GI50 (LOX IMVI) was 18.1 µM (inactive) and the GI50 (M14) was 35.1 µM (inactive). For the same compound, the GI50 (MCF7) was 40.9 µM (inactive), the GI50 (MDA-MB-231) was 37.9 µM (inactive) and the GI50 (MDA-MB-435) was 39 µM (inactive). For the same compound, the GI50 (MDA-N) was 37.1 µM (inactive), the GI50 (MOLT-4) was 17.9 µM (inactive) and the GI50 (Malme-3M) was 64.9 µM (inactive). The GI50 (NCI-H226) was > 100 µM (inactive), the GI50 (NCI-H23) was 74.5 µM (inactive) and the GI50 (NCI-H460) was 49.2 µM (inactive). For the same compound, the GI50 (NCI-H522) was 29.6 µM (inactive), the GI50 (NCI/ADR-RES) was > 100 µM (inactive) and the GI50 (OVCAR-3) was 57.9 µM (inactive). For the same compound, the GI50 (OVCAR-4) was 96.8 µM (inactive), the GI50 (OVCAR-5) was > 100 µM (inactive) and the GI50 (OVCAR-8) was 65 µM (inactive). For the same compound, the GI50 (PC-3) was 24.2 µM (inactive), the GI50 (RPMI-8226) was 15.8 µM (inactive) and the GI50 (RXF 393) was 34.8 µM (inactive). The GI50 (SF-268) was 54.6 µM (inactive), the GI50 (SF-295) was 46.9 µM (inactive) and the GI50 (SF-539) was > 100 µM (inactive). The GI50 (SK-MEL-28) was 35.7 µM (inactive), the GI50 (SK-MEL-5) was 34.7 µM (inactive) and the GI50 (SK-OV-3) was > 100 µM (inactive). For the same compound, the GI50 (SN12C) was > 10 µM (inactive), the GI50 (SNB-19) was 45.6 µM (inactive) and the GI50 (SNB-75) was 25.6 µM (inactive). The GI50 (SR) was 13.6 µM (inactive), the GI50 (SW-620) was 29.3 µM (inactive) and the GI50 (T47D) was 62.8 µM (inactive). The GI50 (TK-10) was 70.3 µM (inactive), the GI50 (U-251) was 51.5 µM (inactive) and the GI50 (UACC-62) was 40.6 µM (inactive). For the same compound, the GI50 (UO-31) was > 100 µM (inactive).
